This note sets out measurements from US6207686A, “Endothelin antagonists” (Fujisawa Pharmaceutical Co., Ltd., priority 1994, dated 2001).

Where only a bound is given, the exact number is not on record here.

The target of experiment [1] is T1, ETB (Sus scrofa, UniProt P35463).
T1 construct: Membranes as endothelin receptors were isolated from inner medulla of porcine kidney; from tissue; host or cells: inner medulla of porcine kidney, crude membranes
T1 sequence (P35463 27-443): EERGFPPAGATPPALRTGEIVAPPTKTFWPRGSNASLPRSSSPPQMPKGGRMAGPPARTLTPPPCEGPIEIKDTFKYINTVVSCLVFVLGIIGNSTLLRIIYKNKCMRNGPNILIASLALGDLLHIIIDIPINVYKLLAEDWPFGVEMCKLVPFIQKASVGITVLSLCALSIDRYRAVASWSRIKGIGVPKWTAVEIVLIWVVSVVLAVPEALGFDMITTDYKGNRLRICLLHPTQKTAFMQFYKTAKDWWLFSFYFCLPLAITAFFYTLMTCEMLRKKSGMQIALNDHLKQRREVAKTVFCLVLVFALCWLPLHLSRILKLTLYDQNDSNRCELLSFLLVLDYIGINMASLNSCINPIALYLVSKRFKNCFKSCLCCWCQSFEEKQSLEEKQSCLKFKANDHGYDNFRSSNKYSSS
Put plainly: ETB Antagonistic Activity: radioligand binding assay, effect on specific binding of [^125 I]ET-1 in porcine kidney membrane. Conditions: inner medulla of porcine kidney membrane; [^125 I]ET-1 16 pM. The procedure: (ETB Antagonistic Activity)
(§1) Radioligand binding assay:
(§2) (a) Crude receptor membrane preparation:
Membranes as endothelin receptors were isolated from inner medulla of porcine kidney. The inner medulla of porcine kidney was placed in ice-cold buffer (0.25M sucrose, 5 mM Tris-HCl, 0.1 mM EDTA, pH 7.5). The inner medulla was homogenized in five volumes (w/v) of ice-cold buffer using a Brinkman Polytron PT-10 at a setting of 16,000 rpm for three 10-sec periods. The homogenate was centrifuged at 10,000× g for 20 minutes at 4° C. The pellet was discarded and the supernatant was centrifuged at 100,000× g for 60 minutes at 4° C. […]
To determine [^125 I]ET-1 binding to kidney, membrane suspensions prepared from kidney (10 μg of protein) were incubated by constant shaking for 60 minutes at 23° C. with [^125 I]ET-1 (range, 4-900 pM) in a total volume of 250 μl of buffer 1 that contained 0.1 mg/ml of bovine serum albumin. […] The filter disks were washed three times with 0.1 ml of ice-cold 50 mM Tris-HCl buffer (pH 7.5), and the radioactivity was counted in a gamma counter (Hewlett-Packard) with an efficiency of 71%. […] The Kd was determined by Scatchard analysis. […]

In experiment [2] the target is T2, ETA (Sus scrofa, UniProt Q29010).
T2 construct: The aorta membrane fractions were stored at -80° C. until use; tissue Pel-Freez Biologicals (U.S.A.); host or cells: porcine aorta, crude membrane fraction
T2 sequence (Q29010 21-427): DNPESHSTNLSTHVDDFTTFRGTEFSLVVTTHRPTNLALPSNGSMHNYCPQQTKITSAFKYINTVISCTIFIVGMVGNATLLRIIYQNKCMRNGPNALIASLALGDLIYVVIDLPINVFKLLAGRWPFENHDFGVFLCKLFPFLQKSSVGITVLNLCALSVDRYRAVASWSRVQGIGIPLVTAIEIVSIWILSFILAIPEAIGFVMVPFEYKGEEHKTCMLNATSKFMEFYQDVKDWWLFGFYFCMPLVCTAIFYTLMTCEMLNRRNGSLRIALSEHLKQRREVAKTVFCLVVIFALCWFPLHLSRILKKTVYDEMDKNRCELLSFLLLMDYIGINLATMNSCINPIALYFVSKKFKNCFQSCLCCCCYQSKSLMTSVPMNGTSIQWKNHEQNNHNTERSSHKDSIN
Put plainly: ETA Antagonistic Activity: radioligand binding assay, effect on specific binding of ^125 I-endothelin-1 in porcine aorta membrane. As to conditions: ^125 I-Endothelin-1 1.67×10^-11 M, room temperature, 60 minutes. As for the experimental part:
(ETA Antagonistic Activity)
as §1, §2
Porcine aorta was purchased from Pel-Freez Biologicals (U.S.A.) and stored at -80° C. until use.
Porcine aorta (50 g) was thawed and dissected free from fatty tissue, minced with scissors and then homogenized with a polytron (Brinkmann PT-20, maximal speed for 3×10 sec) in 100 ml buffer (0.25M sucrose, 10 mM Tris-HCl, 0.1 mM EDTA).
The homogenate was centrifuged at 10,000 g for 20 minutes at 4° C.
The supernatant, containing the plasma membrane fraction, was centrifuged at 100,000 g for 60 minutes at 4° C., and then resultant pellets were referred to as crude membrane fractions.
The pellets were resuspended in 25 ml of binding assay buffer (50 mM Tris-HCl, 100 mM NaCl, 5 mM MgCl2, 1.5 μg/ml phenylmethylsulfonyl fluoride (PMSF), 120 μg/ml bacitracin, 12 μg/ml leupepcin, 6 μg/ml chymostain, 0.1% bovine serum albumin (BSA), pH 7.5).
The aorta membrane fractions were stored at -80° C. until use.
(b) ^125 I-endothelin-1 binding assay: […]
After incubation, the incubation mixture were filtered through Glass-fiber GF/C filter (pretreated with 0.1% polyethylene imine for 3 hours prior to use) using cell harvester (Brandel M-24S). […] The filters were counted in a gamma counter (Packard Auto Gamma Model 5650).

For `CCC[C@@H](O)[C@H](C(=O)N[C@@H](Cc1c[nH]c2ccccc12)C(=O)O)c1ccc2c(c1)OCO2` (mixture of isomers) [Compound B, N-[(2RS,3RS)-2-(3,4-Methylenedioxyphenyl)-3-hydroxyhexanoyl]-L-tryptophan], the IC50 (as a rule, the concentration that gives 50% inhibition) in experiment [1] is less than 10 nM; in experiment [2] it was 40 nM.

For the molecule `CCC[C@@H](O)[C@H](C(=O)O)c1ccc2c(c1)OCO2` (racemic) [Compound C, (2RS,3RS)-2-(3,4-Methylenedioxyphenyl)-3-hydroxyhexanoic acid], the IC50 in experiment [2] worked out at 530 nM.

In turn, `O=C(O)[C@H](Cc1c[nH]c2ccccc12)NC(=O)[C@H](c1ccccc1O)[C@H](O)C1CCCCC1` [Compound A, N-[(2R,3R)-3-Cyclohexyl-2-(2-hydroxyphenyl)-3-hydroxypropionyl]-L-tryptophan] showed an IC50 in experiment [1] of 75 nM.
